The test system of the experiment is MDA-MB-231 human breast cancer cells. Nature of the experiment: Cell proliferation assay (CellTiter-Glo, 72 hours treatment). In kind it is cell-based. Particulars: Homo sapiens; MDA-MB-231 cells, 72 hours at 37° C., CellTiter-Glo; read-out: MDA-MB-231 cell proliferation assay (IC50). A digest of the protocol:
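MDA-MB-231 cells seeded at 2,500 cells/well, treated next day with compound or DMSO vehicle for 72 h at 37 °C. Proliferation read by CellTiter-Glo; IC50 from sigmoidal non-linear regression, binned as +++ (<100 nM), ++ (100–1000 nM), + (>1000 nM).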
For orientation: In ATP-based viability assays light output follows the ATP content of the culture.

This passage reports IC50 results from US10577378B2, “EIF4A-inhibiting compounds and methods related thereto” (eFFECTOR Therapeutics, Inc., priority 2015, dated 2020).

With `COc1nccc2c1[C@]1(O)[C@H](O)[C@H](CN(C)C)[C@@H](c3ccccc3)[C@]1(c1ccc(C#N)cc1)O2` (racemic) [141F, Rac-4-((5aR,6S,7S,8R,8aS)-7-((dimethylamino)methyl)-8,8a-dihydroxy-1-methoxy-6-phenyl-6,7,8,8a-tetrahydro-5aH-cyclopenta[4,5]furo[3,2-c]pyridin-5a-yl)benzonitrile], the IC50 fell in the range of 0.1 to 1 µM.
With `COc1cncc2c1[C@]1(O)[C@H](O)[C@H](S(=O)(=O)CC(F)(F)F)[C@@H](c3ccccc3)[C@]1(c1ccc(Br)cc1)O2` (racemic) [117F, Rac-(4bS,5S,6R,7S,7aR)-7a-(4-bromophenyl)-4-methoxy-7-phenyl-6-((2,2,2-trifluoroethyl)sulfonyl)-5,6,7,7a-tetrahydro-4bH-cyclopenta[4,5]furo[2,3-c]pyridine-4b,5-diol], the IC50 is greater than 1 µM.
With `COc1cncc2c1[C@]1(O)[C@H](O)[C@H](C(=O)N(C)C)[C@@H](c3ccccc3)[C@]1(c1ccc(C)cc1)O2` (racemic) [255F, rac-(4bS,5R,6R,7S,7aR)-4b,5-dihydroxy-4-methoxy-N,N-dimethyl-7-phenyl-7a-(p-tolyl)-4b,6,7,7a-tetrahydro-5H-cyclopenta[4,5]furo[2,3-c]pyridine-6-carboxamide], the IC50 lay within 0.1 to 1 µM.
On to `CN(C)C(=O)[C@H]1[C@@H](O)[C@@]2(O)c3nn(C)c(C#N)c3O[C@@]2(c2ccc(C#N)cc2)[C@@H]1c1ccccc1` (racemic) [82F, Rac-(4aR,5S,6R,7R,7aS)-3-cyano-4a-(4-cyanophenyl)-7,7a-dihydroxy-N,N,2-trimethyl-5-phenyl-2,4a,5,6,7,7a-hexahydrocyclopenta[4,5]furo[3,2-c]pyrazole-6-carboxamide], for which the IC50 is greater than 1 µM.
Take `COc1cncc2c1[C@]1(O)[C@H](O)[C@H](CNCCO)[C@@H](c3ccccc3)[C@]1(c1ccc(C#N)cc1)O2` (racemic) [79F, Rac-4-((4bS,5R,6S,7S,7aR)-4b,5-dihydroxy-6-(((2-hydroxyethyl)amino)methyl)-4-methoxy-7-phenyl-5,6,7,7a-tetrahydro-4bH-cyclopenta[4,5]furo[2,3-c]pyridin-7a-yl)benzonitrile]: the IC50 was greater than 1 µM.
As to `OC[C@H]1C[C@@H](c2ccccc2)[C@]2(c3ccc(Br)cc3)Oc3cc(Cl)cnc3[C@]12O` (racemic) [162F, Rac-(5aR,6S,8R,8aR)-5a-(4-bromophenyl)-3-chloro-8-(hydroxymethyl)-6-phenyl-5a,6,7,8-tetrahydro-8aH-cyclopenta[4,5]furo[3,2-b]pyridin-8a-ol], the IC50 is 0.1 to 1 µM.
On to `COc1cncc2c1[C@]1(O)[C@H](O)[C@H](C(=O)NCC(C)(C)O)[C@@H](c3ccccc3)[C@]1(c1ccc(Br)cc1)O2` (racemic) [253F, Rac-(4bS,5R,6R,7S,7aR)-7a-(4-bromophenyl)-4b,5-dihydroxy-N-(2-hydroxy-2-methylpropyl)-4-methoxy-7-phenyl-4b,6,7,7a-tetrahydro-5H-cyclopenta[4,5]furo[2,3-c]pyridine-6-carboxamide], for which the IC50 was less than 0.1 µM.
As for `COc1cncc2c1[C@]1(O)[C@@H](CNCC(F)F)[C@H](CO)[C@@H](c3ccccc3)[C@]1(c1ccc(Br)cc1)O2` (racemic) [181F, Rac-(4bR,5R,6R,7S,7aR)-7a-(4-bromophenyl)-5-(((2,2-difluoroethyl)amino)methyl)-6-(hydroxymethyl)-4-methoxy-7-phenyl-5,6,7,7a-tetrahydro-4bH-cyclopenta[4,5]furo[2,3-c]pyridin-4b-ol], the figure is less than 0.1 µM; as for `COc1cncc2c1[C@]1(O)[C@H](O)[C@H](CNCC(C)(C)O)[C@@H](c3ccccc3)[C@]1(c1ccc(C#N)cc1)O2` (single isomer, unassigned) [254F], less than 0.1 µM.
As to `CN(C)C[C@H]1[C@@H](C#N)[C@@]2(O)c3ncc(Cl)cc3O[C@@]2(c2ccc(C#N)cc2)[C@@H]1c1ccccc1` (racemic) [228F, Rac-(5aR,6S,7R,8S,8aR)-3-chloro-5a-(4-cyanophenyl)-7-((dimethylamino)methyl)-8a-hydroxy-6-phenyl-5a,7,8,8a-tetrahydro-6H-cyclopenta[4,5]furo[3,2-b]pyridine-8-carbonitrile], the IC50 was greater than 1 µM.
Regarding `COc1cncc2c1[C@]1(O)[C@H](O)[C@H](CN(C)C3CC3)[C@@H](c3ccccc3)[C@]1(c1ccc(C#N)cc1)O2` (racemic) [246F, Rac-4-((4bS,5R,6S,7S,7aR)-6-((cyclopropyl(methyl)amino)methyl)-4b,5-dihydroxy-4-methoxy-7-phenyl-4b,5,6,7-tetrahydro-7aH-cyclopenta[4,5]furo[2,3-c]pyridin-7a-yl)benzonitrile], the IC50 is 0.1 to 1 µM.
Take `O[C@@H]1C(F)(F)[C@@H](c2ccccc2)[C@]2(c3ccc(Br)cc3)Oc3cc(Cl)cnc3[C@]12O` (racemic) [91F, Rac-(5aR,6S,8S,8aS)-5a-(4-bromophenyl)-3-chloro-7,7-difluoro-6-phenyl-5a,6,7,8-tetrahydro-8aH-cyclopenta[4,5]furo[3,2-b]pyridine-8,8a-diol]: the IC50 was greater than 1 µM.
Consider `COc1cncc2c1[C@]1(O)[C@H](O)[C@H](CNCC(F)F)[C@@H](c3ccccc3)[C@]1(c1ccc(C#N)cc1)O2` (single isomer, unassigned) [115F], for which the IC50 lay in the range of 0.1 to 1 µM.
For `COc1cncc2c1C1(O)[C@H](O)[C@H](CNCc3cccnc3)[C@@H](c3ccccc3)[C@]1(c1ccc(C#N)cc1)O2` (mixture of isomers) [78F, Rac-4-((5R,6S,7S,7aR)-4b,5-dihydroxy-4-methoxy-7-phenyl-6-(((pyridin-3-ylmethyl)amino)methyl)-4b,5,6,7-tetrahydro-7aH-cyclopenta[4,5]furo[2,3-c]pyridin-7a-yl)benzonitrile], the IC50 was in the range of 0.1 to 1 µM.
Next, `CN(C)C(=O)[C@H]1[C@@H](O)[C@@]2(O)c3c(Cl)cncc3O[C@@]2(c2ccc(C#N)cc2)[C@@H]1c1ccccc1` (single isomer, unassigned) [98F]: 0.1 to 1 µM; `COc1cncc2c1[C@]1(O)[C@H](O)[C@H](C(=O)NCC(F)F)[C@@H](c3ccccc3)[C@]1(c1ccc(Br)cc1)O2` (racemic) [116F, Rac-(4bS,5R,6R,7S,7aR)-7a-(4-bromophenyl)-N-(2,2-difluoroethyl)-4b,5-dihydroxy-4-methoxy-7-phenyl-4b,6,7,7a-tetrahydro-5H-cyclopenta[4,5]furo[2,3-c]pyridine-6-carboxamide]: less than 0.1 µM; `COc1cncc2c1[C@]1(O)[C@@H](CN(C)C)[C@H](CO)[C@@H](c3ccccc3)[C@]1(c1ccc(Br)cc1)O2` (racemic) [205F, Rac-(4bR,5R,6R,7S,7aR)-7a-(4-bromophenyl)-5-((dimethylamino)methyl)-6-(hydroxymethyl)-4-methoxy-7-phenyl-5,6,7,7a-tetrahydro-4bH-cyclopenta[4,5]furo[2,3-c]pyridin-4b-ol]: less than 0.1 µM.
For the compound `COc1cncc2c1[C@]1(O)[C@H](O)[C@H](CN(C)C)[C@@H](c3ccccc3)[C@]1(c1ccc(C#N)cc1)O2` (single isomer, unassigned) [66F], the IC50 was less than 0.1 µM.
Regarding `COc1cncc2c1[C@]1(O)[C@@H]3OC(=O)N[C@@H]3[C@@H](c3ccccc3)[C@]1(c1ccc(C(F)F)cc1)O2` (racemic) [269F, rac-(3aR,4R,4aR,9bS,9cR)-4a-(4-(difluoromethyl)phenyl)-9b-hydroxy-9-methoxy-4-phenyl-3,3a,4,4a,9b,9c-hexahydro-2H-oxazolo[4″,5″:4′,5′]cyclopenta[1′,2′:4,5]furo[2,3-c]pyridin-2-one], the IC50 was less than 0.1 µM.
Next, `COc1cncc2c1[C@]1(O)[C@H](O)[C@H](CNC3COC3)[C@@H](c3ccccc3)[C@]1(c1ccc(C#N)cc1)O2` (racemic) [240F, Rac-4-((4bS,5R,6S,7S,7aR)-4b,5-dihydroxy-4-methoxy-6-((oxetan-3-ylamino)methyl)-7-phenyl-4b,5,6,7-tetrahydro-7aH-cyclopenta[4,5]furo[2,3-c]pyridin-7a-yl)benzonitrile]: 0.1 to 1 µM; `CN(C)C(=O)[C@H]1[C@@H](O)[C@@]2(O)c3ncccc3O[C@@]2(c2ccc(C#N)cc2)[C@@H]1c1ccccc1` (single isomer, unassigned) [9F]: greater than 1 µM.
Consider `CS(=O)(=O)[C@H]1[C@@H](O)[C@@]2(O)c3ncc(Cl)cc3O[C@@]2(c2ccc(Br)cc2)[C@@H]1c1ccccc1` (racemic) [84F, Rac-(5aR,6S,7R,8S,8aS)-5a-(4-bromophenyl)-3-chloro-7-(methylsulfonyl)-6-phenyl-5a,6,7,8-tetrahydro-8aH-cyclopenta[4,5]furo[3,2-b]pyridine-8,8a-diol], for which the IC50 is greater than 1 µM.
Consider `CN(C)C(=O)[C@H]1[C@@H](O)[C@@]2(O)c3ncc(Cl)cc3O[C@@]2(c2ccc(OC(F)(F)F)cc2)[C@@H]1c1ccccc1` (single isomer, unassigned) [17F], for which the IC50 was in the range of 0.1 to 1 µM.
Next, `N#Cc1ccc([C@@]23Oc4cc(Cl)cnc4[C@]2(O)[C@H](O)[C@H](C(N)=O)[C@H]3c2ccccc2)cc1` (single isomer, unassigned) [18F]: less than 0.1 µM; `COc1cncc2c1[C@]1(O)[C@H](O)[C@H](C(=O)N3CCOCC3)[C@@H](c3ccccc3)[C@]1(c1ccc(C(F)(F)F)cc1)O2` (racemic) [281F, rac-((4bS,5R,6R,7S,7aR)-4b,5-dihydroxy-4-methoxy-7-phenyl-7a-(4-(trifluoromethyl)phenyl)-4b,6,7,7a-tetrahydro-5H-cyclopenta[4,5]furo[2,3-c]pyridin-6-yl)(morpholino)methanone]: 0.1 to 1 µM.
Regarding `COc1cc2c(c(OC)n1)[C@]1(O)[C@H](O)[C@H](CN(C)C)[C@@H](c3ccccc3)[C@]1(c1ccc(Br)cc1)O2` (racemic) [230F, Rac-(5aR,6S,7S,8R,8aS)-5a-(4-bromophenyl)-7-((dimethylamino)methyl)-1,3-dimethoxy-6-phenyl-5a,6,7,8-tetrahydro-8aH-cyclopenta[4,5]furo[3,2-c]pyridine-8,8a-diol], the IC50 was less than 0.1 µM.
